Reference: patent publication US6310081A, “Biphenyl sulfonyl aryl carboxylic acids useful in the treatment of insulin resistance and hyperglycemia” (American Home Products Corporation, priority 2001, dated 2001)

How the values were obtained:
diabetic (ob/ob) mice = assay: blood glucose lowering activity in diabetic (ob/ob) mice; assay type: in vivo, mouse (ob/ob, C57 B1/6J); details: positive control, 100 mg/kg/day
Text: The procedures used and results obtained are briefly described below.
The no -insulin dependent diabetic (NIDDM) syndrome can be typically characterizes by obesity, hyperglycemia, abnormal insulin secretion, hyperinsulinemia and insulin resistance.
In each test procedure, mice [Male or female ob/ob (C57 B1/6J) and their lean litermates (ob/+ or +/+, Jackson Laboratories) ages 2 to 5 months (10 to 65 g)] of a similar age were randomized according to body weight into 4 groups of 10 mice. The mice were housed 5 per cage and are maintained on normal rodent chow with water ad libitum. Mice received test compound daily by gavage (suspended in 0.5 ml of 0.5% methyl cellulose); dissolved in the drinking water; or admixed in the diet. The dose of compounds given ranges from 2.5 to 200 mg/kg body weight/day. The dose is calculated based on the fed weekly body weight and is expressed as active moiety. […] Control mice received vehicle only.
On the morning of Day 4, 7 or 14 two drops of blood (approximetly 50 ul) were collected into sodium fluoride containing tubes either from the tail vein or after decapitation. […] The plasma was isolated by centrifugation and the concentration of glucose is measured enzymatically on an Abbott V.P. Analyzer.
For each mouse, the percentage change in plasma glucose on Day 4, 7 or 14 is calculated relative to the mean plasma glucose of the vehicle treated mice. […]

hPTP1B = target: T1, hPTP1B (Homo sapiens, UniProt P18031); assay: Inhibition of Tri-Phosphorylated Insulin Receptor Dodecaphosphopeptide Dephosphorylation by hPTP1B; assay type: biochemical
T1 construct: made in house
T1 sequence (P18031 1-435): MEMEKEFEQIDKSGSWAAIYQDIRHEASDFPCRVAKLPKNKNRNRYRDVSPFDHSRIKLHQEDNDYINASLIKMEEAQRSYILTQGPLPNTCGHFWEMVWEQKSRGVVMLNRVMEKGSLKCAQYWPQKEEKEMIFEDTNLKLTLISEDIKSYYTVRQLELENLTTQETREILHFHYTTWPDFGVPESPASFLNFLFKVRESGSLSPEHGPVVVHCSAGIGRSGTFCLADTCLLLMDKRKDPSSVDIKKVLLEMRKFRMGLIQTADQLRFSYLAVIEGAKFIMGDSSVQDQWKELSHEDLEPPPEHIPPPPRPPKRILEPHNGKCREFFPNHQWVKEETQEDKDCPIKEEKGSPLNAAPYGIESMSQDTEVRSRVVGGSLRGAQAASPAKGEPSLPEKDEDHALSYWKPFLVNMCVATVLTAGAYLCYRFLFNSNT

With `CC1(COc2ccc(CC3SC(=O)NC3=O)cc2)CCCCC1` (centres unmarked) [Ciglitazone, 5-(4-(1-methylcyclohexylmethoxy)benzyl)-2,4-dione] the “plasma glucose lowering (in words)” value (diabetic (ob/ob) mice) was “significant lowering in plasma glucose”.

For `Cc1oc(-c2ccc(C(F)(F)F)cc2)nc1-c1ccc(-c2ccc(OS(=O)(=O)c3ccc(C(=O)O)c(O)c3)cc2)cc1` [Example 14], the IC50 (hPTP1B) was 193 nM.
